Experimental data as given in ChEMBL document CHEMBL5321279 (J Med Chem, 2023).
≈ marks a conversion by molar mass, not a printed value.

Experiments:
[1] = Aqueous stability of the compound assessed as compound remaining at pH 2 measured at 24 hrs by UPLC analysis; format: physicochemical; conditions: aqueous solution, read-out: Stability
[2] = Stability of compound in human gastrointestinal S9 fraction assessed as half life at pH 7.4 measured upto 120 mins by LC-MS/MS analysis; format: ADME, subcellular, Gastrointestinal tract
[3] = Stability of compound in human plasma assessed as half life measured upto 4 hrs by LC-MS/MS analysis; format: ADME, cell-free
[4] = Stability of compound in cynomolgus monkey liver S9 fraction assessed as half life at pH 7.4 measured upto 90 mins by LC-MS/MS analysis; format: ADME, subcellular, Macaca fascicularis
[5] = Stability of compound in rat plasma assessed as half life measured upto 4 hrs by LC-MS/MS analysis; format: ADME, cell-free
[6] = Thermodynamic aqueous solubility at pH 2 measured at 72 hrs by UPLC analysis; format: physicochemical; conditions: aqueous solution, read-out: Therm_solubility
[7] = Stability of compound in dog liver S9 fraction assessed as half life at pH 7.4 measured upto 90 mins by LC-MS/MS analysis; format: ADME, subcellular, Canis lupus familiaris
[8] = Efflux ratio of permeability in human Caco-2 cells from basolateral to apical side over apical to basolateral side in human Caco-2 cells incubated for 2 hrs by LC-MS/MS analysis; format: ADME, cell-based; conditions: caco-2, 2 h
[9] = Aqueous stability of the compound assessed as compound remaining at pH 7 measured at 24 hrs by UPLC analysis; format: physicochemical; conditions: aqueous solution, read-out: Stability
[10] = Stability of compound in dog plasma assessed as half life measured upto 4 hrs by LC-MS/MS analysis; format: ADME, cell-free, Canis lupus familiaris
[11] = Thermodynamic aqueous solubility at pH 7 measured at 24 hrs by UPLC analysis; format: physicochemical; conditions: aqueous solution, read-out: Therm_solubility
[12] = Lipophilicity, logD of compound; format: physicochemical; conditions: octanol/water
[13] = Stability of compound in rat gastrointestinal S9 fraction assessed as half life at pH 7.4 measured upto 120 mins by LC-MS/MS analysis; format: ADME, subcellular, Gastrointestinal tract
[14] = Apparent permeability of the compound from apical to basolateral side in human Caco-2 cells incubated for 2 hrs by LC-MS/MS analysis; format: ADME, cell-based; conditions: for Papp A→B at 2 h: Caco-2
[15] = Stability of compound in dog gastrointestinal S9 fraction assessed as half life at pH 7.4 measured upto 120 mins by LC-MS/MS analysis; format: ADME, subcellular, Canis lupus familiaris, Gastrointestinal tract
[16] = Stability of compound in rat liver S9 fraction assessed as half life at pH 7.4 measured upto 90 mins by LC-MS/MS analysis; format: ADME, subcellular
[17] = Stability of compound in cynomolgus monkey plasma assessed as half life measured upto 4 hrs by LC-MS/MS analysis; format: ADME, cell-free, Macaca fascicularis
[18] = Stability of compound in human liver S9 fraction assessed as half life at pH 7.4 measured upto 90 mins by LC-MS/MS analysis; format: ADME, subcellular
[19] = Stability of compound in cynomolgus monkey gastrointestinal S9 fraction assessed as half life at pH 7.4 measured upto 120 mins by LC-MS/MS analysis; format: ADME, subcellular, Macaca fascicularis, Gastrointestinal tract
[20] = Prodrug conversion in SARS-CoV-2 infected in mouse assessed as (2R,3R,4S,5R)-2-(4-aminopyrrolo[2,1-f][1,2,4]triazin-7-yl)-3,4-dihydroxy-5-(hydroxymethyl)tetrahydrofuran-2-carbonitrile mediated log10 reduction of genomic RNA in lung at 30 mg/kg, po BID measured after 4 days by RT-qPCR analysis; format: ADME, organism-based; conditions: in vivo, 96 h, time 4 day
[21] = Prodrug conversion in SARS-CoV-2 infected in ferret assessed as (2R,3R,4S,5R)-2-(4-aminopyrrolo[2,1-f][1,2,4]triazin-7-yl)-3,4-dihydroxy-5-(hydroxymethyl)tetrahydrofuran-2-carbonitrile mediated log10 reduction of genomic RNA at 10 mg/kg, po BID measured after 4 days by RT-qPCR analysis; format: ADME, organism-based, Mustela putorius furo; conditions: in vivo, 96 h, time 4 day
[22] = Cmax in ferret infected with SARS-CoV-2 assessed as prodrug conversion by measuring (2R,3R,4S,5R)-2-(4-aminopyrrolo[2,1-f][1,2,4]triazin-7-yl)-3,4-dihydroxy-5-(hydroxymethyl)tetrahydrofuran-2-carbonitrile at 10 mg/kg, po BID measured after 4 days by LC-MS/MS analysis; format: ADME, organism-based, Mustela putorius furo; design: time 4 day, dose 10 mg/kg, route po; conditions: in vivo, 96 h
[23] = AUC(0 to 24 hrs) in SARS-CoV-2 infected mouse assessed as prodrug conversion (2R,3R,4S,5R)-2-(4-aminopyrrolo[2,1-f][1,2,4]triazin-7-yl)-3,4-dihydroxy-5-(hydroxymethyl)tetrahydrofuran-2-carbonitrile at 30 mg/kg, po BID measured after 4 days by LC-MS/MS analysis; format: ADME, organism-based; design: dose 30 mg/kg, time 4 day, route po; conditions: in vivo, 96 h
[24] = AUC(0 to 24 hrs) in ferret infected with SARS-CoV-2 assessed as prodrug conversion by measuring (2R,3R,4S,5R)-2-(4-aminopyrrolo[2,1-f][1,2,4]triazin-7-yl)-3,4-dihydroxy-5-(hydroxymethyl)tetrahydrofuran-2-carbonitrile at 10 mg/kg, po BID measured after 4 days by LC-MS/MS analysis; format: ADME, organism-based, Mustela putorius furo; design: dose 10 mg/kg, time 4 day, route po; conditions: in vivo, 96 h
[25] = Cmax in mouse infected with SARS-CoV-2 assessed as prodrug conversion by measuring (2R,3R,4S,5R)-2-(4-aminopyrrolo[2,1-f][1,2,4]triazin-7-yl)-3,4-dihydroxy-5-(hydroxymethyl)tetrahydrofuran-2-carbonitrile at 30 mg/kg, po BID measured after 4 days by LC-MS/MS analysis; format: ADME, organism-based; design: dose 30 mg/kg, time 4 day, route po; conditions: in vivo, 96 h
[26] = Lipophilicity, logP of compound; format: physicochemical; conditions: octanol/water
[27] = system: PC-3; assay: Cytotoxicity against human PC-3 cells assessed as reduction in cell growth measured after 5 days by CellTiter-Glo assay; format: toxicity, cell-based; conditions: pc-3, 120 h, time 5 day
[28] = system: HepG2; assay: Cytotoxicity against human HepG2 cells assessed as reduction in cell growth measured after 5 days by CellTiter-Glo assay; format: toxicity, cell-based; conditions: hepg2, 120 h, time 5 day
[29] = system: MT4; assay: Cytotoxicity against human MT4 cells assessed as reduction in cell growth measured after 5 days by CellTiter-Glo assay; format: toxicity, cell-based; conditions: mt4, 120 h, time 5 day
[30] = system: Huh-7; assay: Cytotoxicity against human Huh-7 cells assessed as reduction in cell growth measured after 5 days by CellTiter-Glo assay; format: toxicity, cell-based; conditions: huh-7, 120 h, time 5 day
[31] = system: MRC5; assay: Cytotoxicity against human MRC5 cells assessed as reduction in cell growth measured after 5 days by CellTiter-Glo assay; format: toxicity, cell-based; conditions: mrc5, 120 h, time 5 day
[32] = Cytotoxicity against human NHBE-T cells assessed as reduction in cell growth measured after 5 days by CellTiter-Glo assay; format: toxicity, cell-based; conditions: nhbe-t, 120 h, time 5 day
[33] = system: Hepatocyte; assay: Cytotoxicity against human primary hepatocytes assessed as reduction in cell growth measured after 5 days by CellTiter-Glo assay; format: toxicity, cell-based; conditions: hepatocytes, 120 h, time 5 day
[34] = system: PBMC; assay: Cytotoxicity against stimulated human PBMC cells assessed as reduction in cell growth measured after 5 days by CellTiter-Glo assay; format: toxicity, cell-based; conditions: pbmc, 120 h, time 5 day
[35] = system: PBMC; assay: Cytotoxicity against quiescent human PBMC cells assessed as reduction in cell growth measured after 5 days by CellTiter-Glo assay; format: toxicity, cell-based; conditions: pbmc, 120 h, time 5 day

SMILES	remaining at 24 h [1]	half-life [2]	half-life [3]	half-life at […] [4]	half-life [5]	solubility thermodynamic at 72 h [6]	half-life at […] [7]	Ratio [8]	remaining at 24 h [9]	half-life [10]	solubility thermodynamic at 24 h [11]	logD [12]	half-life [13]	Papp A→B at 2 h [14]	half-life [15]	half-life at […] [16]	half-life [17]	half-life at […] [18]	half-life [19]	other results
CC(=O)OC[C@H]1O[C@@](C#N)(c2ccc3c(N)ncnn23)[C@H](OC(C)=O)[C@@H]1OC(C)=O	82%	< 2 min	4.7 min	< 2 min	< 2 min	≥ 40000 µg/mL	< 2 min	3	79%	111 min	1400 µg/mL (≈ 3.35 mM)	1.5	> 2 min	4 ×10⁻⁶ cm/s	16 min	< 2 min	9.2 min	< 2 min	< 2 min	–
CC(C)C(=O)OC[C@H]1O[C@@](C#N)(c2ccc3c(N)ncnn23)[C@H](OC(=O)C(C)C)[C@@H]1OC(=O)C(C)C	≥ 96%	< 2 min	5.5 min	< 2 min	< 2 min	600 µg/mL (≈ 1.2 mM)	< 2 min	< 1	≥ 98%	182 min	< 10 µg/mL	3.5	> 2 min	–	< 2 min	2.9 min	7.2 min	< 2 min	< 2 min	log(activity) [20]: -3.29; log(activity) [21]: -1.98; Cmax [22]: 5 µM; AUC [23]: 95 µM·h; Papp ([14]; caco-2, 2 h): 22 10^-6 cm/s; AUC [24]: 54 µM·h; Cmax [25]: 13 µM
CC(=O)OC[C@H]1O[C@@](C#N)(c2ccc3c(N)ncnn23)[C@H](O)[C@@H]1O	89%	28 min	70 min	5.3 min	3 min	–	25 min	0.5	96%	564 min	1000 µg/mL (≈ 3 mM)	< 0.3	> 2 min	1.4 ×10⁻⁶ cm/s	226 min	10 min	146 min	19 min	38 min	–
[N-]=[N+]=N[C@]1(CO)O[C@@H](n2ccc(N)nc2=O)[C@H](O)[C@@H]1O [4'-AZIDOCYTIDINE]	–	–	–	–	–	–	–	–	–	–	–	–	–	–	–	–	–	–	–	logP [26]: > 2
COc1ccc(C[C@H](N)C(=O)N[C@H]2[C@@H](O)[C@H](n3cnc4c(N(C)C)ncnc43)O[C@@H]2CO)cc1 [PUROMYCIN]	–	–	–	–	–	–	–	–	–	–	–	–	–	–	–	–	–	–	–	CC50 [27]: 470 nM; CC50 [28]: 780 nM; CC50 [29]: 120 nM; CC50 [30]: 430 nM; CC50 [31]: 320 nM; CC50 [32]: 600 nM; CC50 [33]: 1100 nM; CC50 [34]: 1100 nM; CC50 [35]: 5050 nM
